Target: GHS-R (Homo sapiens, UniProt Q92847)
Experiment: cell based assay of GHS-R antagonist/agonist activity
Design: key: A refers to a compound having antagonist activity with Ki<100 nM in a cell based assay; B refers to a compound having agonist activity with EC50<100 nM in a cell based assay; C refers to a compound having antagonist activity of Ki>100 nM and <1500 nM in a cell based assay; D refers to a compound having antagonist activity with Ki, <100 nM and agonist activity with EC50<100 nM in a cell-based assay; E refers to other exemplary compounds
Settings: GHS-R antagonist Ki and/or agonist EC50 class
Protocol: Cell-Based Activity Assays. For example, the ability of the compound to modulate accumulation of a second messenger signaling component downstream of GHS-R can be evaluated. For example, inositol phosphates (IP), as a result of Gq signaling in a mammalian cell, e.g., a Cos-7 cells. Other tissue culture cells, Xenopus oocytes, and primary cells can also be used.
Phosphatidylinositol turnover assay. One day after transfection COS-7 cells are incubated for 24 hours with 5 μCi of [^3H]-myo-inositol in 1 ml medium supplemented with 10% fetal calf serum, 2 mM glutamine and 0.01 mg/ml gentamicin per well. Cells are then washed twice in buffer, 20 mM HEPES, pH 7.4, supplemented with 140 mM NaCl, 5 mM KCl, 1 mM MgSO4, 1 mM CaCl2, mM glucose, 0.05% (w/v) bovine serum; and incubated in 0.5 ml buffer supplemented with 10 mM LiCl at 37° C. for 30 min. For some assays, it is also useful to incubate the cells with adenosine deaminase ADA (200 U/mg, Boehringer Mannheim, Germany) for 30 min in a concentration of 1 U/ml.
After incubation with the compound of interest for 45 min at 37° C., cells are extracted with 10% ice-cold perchloric acid and placed on ice for 30 min. The resulting supernatants are neutralized with KOH in HEPES buffer, and [^3H]-inositol phosphate is purified on Bio-Rad AG 1-X8 anion exchange resin as described. Assays can be run in duplicate, triplicate, etc.
Other second messenger assays. Another second messenger that can be evaluated is Ca^2+. Ca^2+ mobilization can be evaluated using a calcium sensitive detector, such as aequorin protein or a dye, e.g., FURA-2. In an exemplary assay, calcium mobilization is evaluated in a recombinant cell that expresses GHS-R and aequorin.
Gene expression assay. HEK293 cells (30 000 cells/well) seeded in 96-well plates are transiently transfected with a mixture of pFA2-CREB and pFR-Luc reporter plasmid (PathDetect™ CREB trans-Reporting System, Stratagene) and nucleic acid encoding GHS. One day after transfection, cells are treated with the compound of interest in an assay volume of 100 μl medium for 5 hrs. After treatment, cells are cultured in low serum (2.5%). After the incubation period, the assay is ended by washing the cells twice with PBS and adding 100 μl luciferase assay reagent (LucLite™, Packard Bioscience). Luminescence is measured (e.g., as relative light units (RLU)) using in a luminometer such as the TopCounter™ (Packard Bioscience) for 5 sec.
IC50 and EC50 values can be determined by nonlinear regression, e.g., using the Prism 3.0 software (GraphPad Software, San Diego).

GHS-R, sequence (Q92847 whole entry, species assumed): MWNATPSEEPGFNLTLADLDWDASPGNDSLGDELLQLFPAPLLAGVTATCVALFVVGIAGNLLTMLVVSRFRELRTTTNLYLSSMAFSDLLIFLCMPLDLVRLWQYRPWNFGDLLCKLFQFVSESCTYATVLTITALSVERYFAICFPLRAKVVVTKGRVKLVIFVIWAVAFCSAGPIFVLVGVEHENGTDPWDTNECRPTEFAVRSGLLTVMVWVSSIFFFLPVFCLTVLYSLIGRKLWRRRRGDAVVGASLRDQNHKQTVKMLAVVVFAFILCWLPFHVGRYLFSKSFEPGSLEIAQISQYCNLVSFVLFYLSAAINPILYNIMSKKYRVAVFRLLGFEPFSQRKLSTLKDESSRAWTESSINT

SMILES | Activity
CN(C)CCS(=O)(=O)N[C@H](COCc1ccccc1)C(=O)N1CCC2(CC1)CN(S(C)(=O)=O)c1ccccc12 [Compound 83] | E
CN1CCC(N[C@H](COCc2ccccc2)C(=O)N2CCC3(CC2)CN(S(C)(=O)=O)c2ccccc23)CC1 [Compound 84] | E
CC(C)(C)NC(=S)N[C@H](COCc1ccccc1)C(=O)N1CCC2(CC1)CN(S(C)(=O)=O)c1ccccc12 [Compound 85] | E
CS(=O)(=O)N1CC2(CCN(C(=O)[C@@H](COCc3ccccc3)NC(=S)Nc3cccnc3)CC2)c2ccccc21 [Compound 86] | E
CS(=O)(=O)N1CC2(CCN(C(=O)[C@@H](COCc3ccccc3)NC(=S)NCc3ccco3)CC2)c2ccccc21 [Compound 87] | E
CC(=O)N(C1CCN(C)CC1)[C@H](COCc1ccccc1)C(=O)N1CCC2(CC1)CN(S(C)(=O)=O)c1ccccc12 [Compound 88] | E
CN(C)CCC(=O)N[C@H](COCc1ccccc1)C(=O)N1CCC2(CC1)CN(S(C)(=O)=O)c1ccccc12 [Compound 89] | E
CCN(CC)CC(=O)N[C@H](COCc1ccccc1)C(=O)N1CCC2(CC1)CN(S(C)(=O)=O)c1ccccc12 [Compound 90] | E
CN1CCN(CC(=O)N[C@H](COCc2ccccc2)C(=O)N2CCC3(CC2)CN(S(C)(=O)=O)c2ccccc23)CC1 [Compound 91] | E
CS(=O)(=O)N1CC2(CCN(C(=O)[C@@H](COCc3ccccc3)NC(=O)NCCN3CCOCC3)CC2)c2ccccc21 [Compound 92] | E
CN1CCN(C(=O)N[C@H](COCc2ccccc2)C(=O)N2CCC3(CC2)CN(S(C)(=O)=O)c2ccccc23)CC1 [Compound 93] | E
CN(C)CCNC(=O)N[C@H](COCc1ccccc1)C(=O)N1CCC2(CC1)CN(S(C)(=O)=O)c1ccccc12 [Compound 94] | E
CS(=O)(=O)N1CC2(CCN(C(=O)[C@@H](COCc3ccccc3)NC(=O)NCCCO)CC2)c2ccccc21 [Compound 95] | E
CCN1CCC[C@@H]1CNC(=O)N[C@H](COCc1ccccc1)C(=O)N1CCC2(CC1)CN(S(C)(=O)=O)c1ccccc12 [Compound 96] | E
CS(=O)(=O)N1CC2(CCN(C(=O)[C@@H](COCc3ccccc3)NC(=O)NCCN3CCCCC3)CC2)c2ccccc21 [Compound 97] | E
CC(C)(C)OC(=O)N1CC=C(C(=O)N[C@H](COCc2ccccc2)C(=O)N2CCC3(CC2)CN(S(C)(=O)=O)c2ccccc23)CC1 [Compound 98] | E
CN1CC=C(C(=O)N[C@H](COCc2ccccc2)C(=O)N2CCC3(CC2)CN(S(C)(=O)=O)c2ccccc23)CC1 [Compound 99] | E
CCN1CC=C(C(=O)N[C@H](COCc2ccccc2)C(=O)N2CCC3(CC2)CN(S(C)(=O)=O)c2ccccc23)CC1 [Compound 100] | E
CCN(CCS(=O)(=O)N[C@H](COCc1ccccc1)C(=O)N1CCC2(CC1)CN(S(C)(=O)=O)c1ccccc12)C(C)C [Compound 101] | E
CC(C)CCN1CC=C(C(=O)N[C@H](COCc2ccccc2)C(=O)N2CCC3(CC2)CN(S(C)(=O)=O)c2ccccc23)CC1 [Compound 102] | E
CC(C)(C)OC(=O)N1CCC(CNC(COCc2ccccc2)C(=O)N2CCC3(CC2)CN(S(C)(=O)=O)c2ccccc23)CC1 (centres unmarked) [Compound 103] | E
CS(=O)(=O)N1CC2(CCN(C(=O)C(COCc3ccccc3)NCC3CCNCC3)CC2)c2ccccc21 (centres unmarked) [Compound 104] | E
CS(=O)(=O)N1CC2(CCN(C(=O)[C@@H](COCc3ccccc3)NS(=O)(=O)CCN3CCC3)CC2)c2ccccc21 [Compound 105] | E
CC(C)(C)OC(=O)N1CCC=C(C(=O)N[C@H](COCc2ccccc2)C(=O)N2CCC3(CC2)CN(S(C)(=O)=O)c2ccccc23)C1 [Compound 106] | E

SMILES | Activity
CS(=O)(=O)N1CC2(CCN(C(=O)[C@@H](COCc3ccccc3)NC(=O)C3=CCCNC3)CC2)c2ccccc21 [Compound 107] | E
CC(=O)N(CC1CCN(C(=O)OC(C)(C)C)CC1)[C@H](COCc1ccccc1)C(=O)N1CCC2(CC1)CN(S(C)(=O)=O)c1ccccc12 [Compound 108] | E
CC(C)N1CCC(C(=O)N[C@H](COCc2ccccc2)C(=O)N2CCC3(CC2)CN(S(C)(=O)=O)c2ccccc23)CC1 [Compound 110] | E
CCN(CC)CCC(=O)N[C@H](COCc1ccccc1)C(=O)N1CCC2(CC1)CN(S(C)(=O)=O)c1ccccc12 [Compound 111] | E
CC1=NCCC(C(=O)N[C@H](COCc2ccccc2)C(=O)N2CCC3(CC2)CN(S(C)(=O)=O)c2ccccc23)N1 (some centres unmarked) [Compound 112] | E
CN1CCC[C@H]1CC(=O)N[C@H](COCc1ccccc1)C(=O)N1CCC2(CC1)CN(S(C)(=O)=O)c1ccccc12 [Compound 113] | E
CS(=O)(=O)N1CC2(CCN(C(=O)[C@@H](COCc3ccccc3)NC(=O)[C@@H]3CCC[C@H](CN)C3)CC2)c2ccccc21 [Compound 114] | E
CN1CCC(C(=O)N[C@H](COCc2ccccc2)C(=O)N2CCC3(CC2)CN(S(C)(=O)=O)c2ccccc23)C1 (some centres unmarked) [Compound 115] | E
CN1CCC[C@H](C(=O)N[C@H](COCc2ccccc2)C(=O)N2CCC3(CC2)CN(S(C)(=O)=O)c2ccccc23)C1 [Compound 116] | E
CS(=O)(=O)N1CC2(CCN(C(=O)[C@@H](COCc3ccccc3)NC(=O)C3(N)CCCCC3)CC2)c2ccccc21 [Compound 117] | E
CN(C)C1(C(=O)N[C@H](COCc2ccccc2)C(=O)N2CCC3(CC2)CN(S(C)(=O)=O)c2ccccc23)CCCCC1 [Compound 118] | E
CN(C)C1(C(=O)N[C@H](COCc2ccccc2)C(=O)N2CCC3(CC2)CN(S(C)(=O)=O)c2ccccc23)CCCC1 [Compound 119] | E
CS(=O)(=O)N1CC2(CCN(C(=O)[C@@H](COCc3ccccc3)NC(=O)C3(N)CC3)CC2)c2ccccc21 [Compound 120] | E
CS(=O)(=O)N1CC2(CCN(C(=O)[C@@H](COCc3ccccc3)NC(=O)c3ccc(CN)cc3)CC2)c2ccccc21 [Compound 121] | E
CS(=O)(=O)N1CC2(CCN(C(=O)[C@@H](COCc3ccccc3)NC(=O)c3cccc(CN)c3)CC2)c2ccccc21 [Compound 122] | E
CN(C)CC(=O)N[C@H](Cc1ccccc1)C(=O)N1CCC2(CC1)CN(S(C)(=O)=O)c1ccccc12 [Compound 123] | E
CN(C)CC(=O)N[C@@H](Cc1ccccc1)C(=O)N1CCC2(CC1)CN(S(C)(=O)=O)c1ccccc12 [Compound 124] | E
CC(C)(N)C(=O)N[C@H](COCc1ccccc1)C(=O)N1CCC2(CC1)CN(S(C)(=O)=O)c1ccccc12.CS(=O)(=O)O [Compound 125] | B (B refers to a compound having agonist activity with EC50<100 nM in a cell based assay)
CC(=O)NC(C)(C)C(=O)N[C@H](COCc1ccccc1)C(=O)N1CCC2(CC1)CN(S(C)(=O)=O)c1ccccc12 [Compound 126] | B (B refers to a compound having agonist activity with EC50<100 nM in a cell based assay)
CN(C)CC(=O)NC(C)(C)C(=O)N[C@H](COCc1ccccc1)C(=O)N1CCC2(CC1)CN(S(C)(=O)=O)c1ccccc12 [Compound 127] | B (B refers to a compound having agonist activity with EC50<100 nM in a cell based assay)
CS(=O)(=O)N1CC2(CCN(C(=O)[C@@H](COCc3ccccc3)NC(=O)C3CCNCC3)CC2)c2ccccc21 [Compound 128] | B (B refers to a compound having agonist activity with EC50<100 nM in a cell based assay)
CN[C@@H](C)C(=O)N[C@H](COCc1ccccc1)C(=O)N1CCC2(CC1)CN(S(C)(=O)=O)c1ccccc12 [Compound 129] | B (B refers to a compound having agonist activity with EC50<100 nM in a cell based assay)
CN[C@H](C)C(=O)N[C@H](COCc1ccccc1)C(=O)N1CCC2(CC1)CN(S(C)(=O)=O)c1ccccc12 [Compound 130] | B (B refers to a compound having agonist activity with EC50<100 nM in a cell based assay)
